Results as given in patent US8022617B2, “Organic compound, charge-transporting material, composition for charge-transporting material and organic electroluminescent device” (Mitsubishi Chemical Corporation, priority 2005, dated 2011).

Assay: Solubility in toluene
Assay type: physicochemical
Conditions: solvent toluene
Text: As described below, an aromatic hydrocarbon is preferred as a solvent contained in a composition for charge-transporting material. Toluene is a typical aromatic hydrocarbon and is used as an index of the solubility of the organic compound (charge-transporting material) in the present invention.

SMILES	dissolved in toluene in an amount of [percent by weight]
O=c1n(-c2cccc(-c3ccccc3)c2)c2ccccc2n1-c1cccc(-c2ccccc2)c1 [Target Compound 6]	≥ 5.0
O=c1n(-c2cccc(-n3c4ccccc4c4ccccc43)c2)c2cccnc2n1-c1cccc(-n2c3ccccc3c3ccccc32)c1 [Target Compound 16]	≥ 3
O=c1n(-c2cccc(-n3c4ccccc4c4ccncc43)c2)c2ccccc2n1-c1cccc(-n2c3ccccc3c3ccncc32)c1 [Target Compound 12]	≥ 3

The next lines start with the values.

dissolved in toluene in an amount of [percent by weight]	SMILES
≥ 3	O=c1n(-c2cccc(-n3c4ccccc4c4ccccc43)c2)c2ccccc2n1-c1cccc(-n2c3ccccc3c3ccccc32)c1 [Target Compound 4]
≥ 5.0	O=c1n(-c2ccc(N(c3ccccc3)c3ccc(-c4ccccc4)cc3)cc2)c2ccccc2n1-c1ccc(N(c2ccccc2)c2ccc(-c3ccccc3)cc2)cc1 [Target Compound 5]
